We go through nine compounds from patent US20120035187A1 (priority 2009, published 2012).

One data set deals with PC12-HS cells. Kind of data set: Cytotoxicity by amyloid β fragment, cell survival (Evaluation C). The class given is cell-based. The note with it: for Cell survival percentage (%): PC12-HS cells + amyloid β fragment. On the procedure: A plurality of peptide fragments (called “AMYLOID β FRAGMENT” commercialized by AnaSpec, Inc., CA, USA, each peptide having the amino acid sequence of SEQ ID NO:1), which have an amino acid sequence positioning from 25th to 35th from the N-terminus of amyloid R peptide with human origin and have been recognized as a main factor of neurocyte death in Alzheimer's disease, were diluted with phosphate buffered saline (PBS) to give a concentration of 2 mM, and used after being aged at 37° C. for six hours to coagulate them to increase their cytotoxicity before use. […] Viability (%) of cells in each well was determined and shown in Table 1 by calculating a relative value when the fluorescent intensity of the control was regarded as 100%. While, the supernatant of cell culture, which had been cultured under the same conditions as above, was removed, and the resulting cells were fixed by the addition of 1% by volume of glutaraldehyde, which had been prepared by diluting with PBS, in a volume of 100 μl/well for 30 min. Thereafter, the cells were stained with […] Hoechst 33258 dye commercialized by SIGMA Corporation, Tokyo, Japan, for five min, observed at a magnitude corresponding to a visual filed containing about 100 cells under a phase contrast microscope and a fluorescent microscope, and counted. The occupied percentage (%) of cells with apoptosis against the total cells in one visual field was calculated and the data was also shown in Table 1. The judgment of cells with apoptosis was made with an index of fragmentation of cell nuclei and chromatin aggregation within the nuclei.
Then, the effect of the above-compounds' concentrations on the cytotoxicity by amyloid β fragment was further investigated. The above 6-compounds and NK-4 were used as test samples, and the protective effects of these compounds against cytotoxicity by amyloid β fragment were evaluated by the same conditions as used in Evaluation C in Experiment 3, except for adding each compound to a well inoculated with PC12-HS cells to give a final concentration as shown in Table 7.

Data set [1] has as its system hamsters with cerebellar ataxia. Kind of data set: Falling down frequency of hamsters with cerebellar ataxia. Conditions: for Falling down frequency (frequency/min): cerebellar ataxia hamsters, 10-weeks of age; for Falling down frequency (count/min): hamster with cerebellar ataxia, agent of Example 1, 0.5 ml/hamster intraperitoneally once a day for 56 days. It counts as in vivo, hamster. The source says: Since NK-4 was confirmed to have a neurodegenerative inhibitory action in Experiment 1, hamsters with cerebellar ataxia (cerebellar ataxia is called “cerebellar A” and hamsters with cerebellar ataxia are called “hamsters with cerebellar A”, hereinafter) as a suitable model for human neurodegenerative diseases (e.g., spinal cerebellar degeneration) were subjected to examine the influence of NK-4 administration on their behaviors and brain tissues. Twenty-five hamsters with natural mutation (Nna1 inhibition), which are known to lose Purkinje's cells after three-weeks of age and then induce a spontaneous onset of kinetic motor ataxia after seven-weeks of age (see Akita K. et al., “J. Neurogenetics”, Vol. 21, pp. 19-29, 2007), had been fed at Hayashibara Biochemical Laboratories., Inc., Okayama, Japan, were randomly allocated to the test groups 1 to 5, five heads in each group, as shown in Table 2. Prior to the onset of cerebellar A (at three-weeks of age), PBS was started to administer to the hamsters in the test group 1 at a dose of 10 ml/kg/day. Prior to the onset of cerebellar A (at three-weeks of age), NK-4 was started to be administered to the hamsters in the test groups 2 to 4 at a daily dose of 20 μg/kg, 100 μg/kg or 500 μg/kg. “IGF-1, human, a product name of insulin-like growth factor, commercialized by Assaypro LLC, MO, USA. These administered ingredients were intraperitoneally administered daily to hamsters once a day up to 10-weeks of age. The degree of symptom of cerebellar A and the improvement effect on the symptom by NK-4 were evaluated with an index of improvement in motor coordination of hamsters by conducting once a week the later described rotarod test and the slant tolerance test. At the age of 10-weeks, the hamsters were subjected to counting the falling down frequency and extracted their brains, which were then histologically evaluated. In parallel, the concentration of glutamic acid in the bloods and cerebrospinal fluids (CSF) of the hamsters was assayed. As a test group 6, five normal hamsters, with the same age as the hamsters with cerebellar A used in the test groups 1 to 5, were provided and tested similarly as the hamsters with cerebellar A in such a manner of intraperitoneally administering PBS to them at a dose of 10 ml/kg/day once a day up to 10-weeks of age.
Hamsters, 10-weeks of age, were respectively housed in a breeding cage. Their falling down frequencies within one minute were counted under a macroscopic observation and the data from five heads in each group were averaged. For reference, the hamsters with cerebellar A used in this experiment are known to increase their falling down frequencies after nine weeks of age.
Similarly as in Experiment 2, 130 hamsters with cerebellar ataxia, born within the same week and 3-weeks of age, were randomly divided into 13 groups, consisting of 10 hamsters, respectively. […] The hamsters (10 heads) in the remaining one group were intraperitoneally administered from their age of 3- to 10-weeks with a sterilized 10% maltose solution (pyrogen-free) in an amount of 0.5 ml/hamster (control) once a day for 56 days At the next day after the end of the administration, body weight of each hamster was weighed, followed by performing rotarod test, slope endurance test, and counting of falling down frequency. The types of compounds applied to each group and the results are in Table 25.

Data set [2] can be described thus: Peroxyl radical-scavenging activity, ESR (AAPH). The procedure:
Stock solutions, prepared by dissolving NK-4, NK-19, NK-53, NK-100, and NK-557 in DMSO, were respectively diluted with 0.1 M phosphate buffer to give concentrations of […] higher than those in Table 15 and used as test sample solutions. To 50 μl of 0.1 M phosphate buffer (pH 7.4), 50 μl of 180 mM DMPO ([…]) commercialized by Dojindo Laboratories, Kumamoto, Japan, 50 μl of any one of the test sample solutions, and 50 μl of 100 mM AAPH, commercialized by Wako Pure Chemical Industries, Osaka, Japan, were added, mixed for 10 seconds using a vortex mixer and allowed to react in an incubator controlled at 37° for two minutes and 50 seconds. After 30 seconds from completion of the reaction, the resulting reaction mixture was subjected to ESR measurement.
The reaction mixture for measuring hydroxyl or peroxyl radicals was poured into a flat quartz cell for ESR, set to “FREE RADICAL MONITOR JES-FR30”, an ESR apparatus commercialized by JOEL Ltd., Tokyo, Japan, and ESR was measured according to manual manner. The residual ratio of peroxyl radical (%) was determined as a relative value by defining the ESR value, obtained by using 0.1 M phosphate buffer as a substitute of the test sample solution, as 100. The results are in Tables 14 and 15. […] Therefore, the IC50 of edaravone was determined by another test using its higher concentration, and the result is also shown in Table 14. The conditions of the ESR measurement were set as follows: […]

[3] abbreviates: final concentration of compound 12.5 ng/ml.
Setting [4] is: final concentration of compound 50 ng/ml.
Setting [5] is: final concentration of compound 200 ng/ml.
Where [6] appears, read: final concentration of compound 800 ng/ml.
Setting [7] is: compound concentration 25 μg/ml.
Setting [8] is: compound concentration 50 μg/ml.

Marks after values point to notes of the source that are not given here.

Turning to `CCN1C=CC(=CC=C(C=Cc2cc[n+](CC)c3ccccc23)c2cc[n+](CC)c3ccccc23)c2ccccc21.[I-].[I-]` [NK-4], the “Survibal percentage of cells when admixed with cytotoxic factor (%) Amyloid β fragment” value is reported as 129 ** % in the data set on PC12-HS cells (NK-4 200 ng/ml); 97 ** % in the data set on PC12-HS cells (NK-4 1000 ng/ml); 97 ** % in the data set with PC12-HS cells (NK-4 5000 ng/ml); 89 ** % with PC12-HS cells (PC12-HS cells, 50 μM amyloid β fragment, 3 days, NK-4 40 ng/ml). Also, in the data set on PC12-HS cells (PC12-HS cells), the “minimum concentration exerting protection action against injury through amyloid β fragment” value was determined as 40 ng/mL. Further, the “Cell survival percentage (%)” value with PC12-HS cells (setting [3]) is given as 34 ± 1%; in the data set with PC12-HS cells (setting [4]), 69 ± 7%; in the data set with PC12-HS cells (setting [5]), 122 ± 32%; in the data set on PC12-HS cells (setting [6]), 89 ± 4%. The “Falling down frequency (frequency/min)” value in data set [1] (20 μg/kg body weight i.p. once a day) is 4.0 ± 1.0 frequency/min; in data set [1] (100 μg/kg body weight i.p. once a day), 1.6 ± 0.9 frequency/min; in data set [1] (500 μg/kg body weight i.p. once a day), 1.2 ± 0.8 frequency/min. Also, in data set [1], the “Falling down frequency (count/min)” value was 1.1 ± 0.8 count/min. Moreover, the “IC50 (μg/ml) of peroxyl radical-scavenging activity” value (shortened to “IC50 (μg/ml)”) in data set [2] amounted to 4.7 µg/mL. Moreover, the “Residual ratio of peroxyl radical (%)” value was found to be 46 ± 9 % in data set [2] (compound concentration 5 μg/ml), 17 ± 1 % in data set [2] (setting [7]) and 16 ± 0 % in data set [2] (setting [8]).
In the case of `CCCCN1C=C/C(=C/C=C(/C=C/c2cc[n+](CCCC)c3ccccc23)c2cc[n+](CCCC)c3ccccc23)c2ccccc21` [NK-26], the “Falling down frequency (count/min)” value in data set [1] is 1.0 ± 0.7 count/min.
For the compound `CCCCCCCN1C=CC(=CC=C(C=Cc2cc[n+](CCCCCCC)c3ccccc23)c2cc[n+](CCCCCCC)c3ccccc23)c2ccccc21.[I-].[I-]` [NK-28], the “Falling down frequency (count/min)” value in data set [1] came to 1.3 ± 0.9 count/min.
On to `CCN1/C(=C/C=C(/C=C/c2sc3ccccc3[n+]2CC)c2sc3ccccc3[n+]2CC)Sc2ccccc21.[I-].[I-]` [NK-100], for which the “Cell survival percentage (%)” value in the data set on PC12-HS cells (setting [3]) is 47 ± 2%; in the data set with PC12-HS cells (setting [4]), 88 ± 12%; in the data set on PC12-HS cells (setting [5]), 60 ± 5%; in the data set on PC12-HS cells (setting [6]), 44 ± 4%. For the same compound, the “Falling down frequency (count/min)” value in data set [1] was found to be 1.3 ± 0.7 count/min. Also, the “IC50 (μg/ml)” value in data set [2] is 50< μg/ml. Besides, the “Residual ratio of peroxyl radical (%)” value in data set [2] (compound concentration 5 μg/ml) was found to be 86 ± 15%; in data set [2] (setting [7]), 86 ± 15%; in data set [2] (setting [8]) it was 76 ± 7 %.
For `CCCCCCCCN1C=CC(=CC=C(C=Cc2cc[n+](CCCCCCCC)c3ccccc23)c2cc[n+](CCCCCCCC)c3ccccc23)c2ccccc21.[I-].[I-]` [NK-147], in data set [1], the “Falling down frequency (count/min)” value turned out to be 1.5 ± 0.8 count/min.
Consider `CCCCCCCCCN1C(C)=CS\C1=C/C=C(\C=C\c1scc(C)[n+]1CCCCCCCCC)c1scc(C)[n+]1CCCCCCCCC.[I-].[I-]` [NK-393], for which the “Falling down frequency (count/min)” value in data set [1] turned out to be 0.9 ± 0.8 count/min.
Turning to `CN(C)c1ccc(/C=C/c2oc3ccccc3[n+]2C)cc1` [NK-528], the “Cell survival percentage (%)” value in the data set on PC12-HS cells (setting [3]) was 40 ± 9%; in the data set on PC12-HS cells (setting [4]), 36 ± 4%; in the data set with PC12-HS cells (setting [5]) it was 50 ± 10%; in the data set with PC12-HS cells (setting [6]), 111 ± 7%. Moreover, the “Falling down frequency (count/min)” value in data set [1] came to 5.2 ± 1.4 count/min.
`CC[n+]1ccccc1/C=C/c1ccc(N(C)C)cc1` [NK-557]: the “Cell survival percentage (%)” value with PC12-HS cells (setting [3]) turned out to be 36 ± 3%; with PC12-HS cells (setting [4]), 114 ± 9%; in the data set on PC12-HS cells (setting [5]), 94 ± 11%; with PC12-HS cells (setting [6]), 73 ± 1%. In data set [1], the “Falling down frequency (count/min)” value stood at 6.5 ± 1.1 count/min. In addition, the “IC50 (μg/ml)” value in data set [2] is reported as 50< μg/ml. The “Residual ratio of peroxyl radical (%)” value in data set [2] (compound concentration 5 μg/ml) worked out at 90 ± 9%; in data set [2] (setting [7]), 58 ± 5 %; in data set [2] (setting [8]) it was 66 ± 8 %.
With `COc1ccc2oc(/C=C/c3ccc(N(C)C)cc3)[n+](C)c2c1` [NK-1516], the “Cell survival percentage (%)” value in the data set with PC12-HS cells (setting [3]) is 34 ± 5%; with PC12-HS cells (setting [4]), 29 ± 5%; in the data set on PC12-HS cells (setting [5]) it was 31 ± 3%; with PC12-HS cells (setting [6]), 70 ± 11%. The “Falling down frequency (count/min)” value in data set [1] is given as 7.1 ± 0.8 count/min.
